Data published in patent US20060194748A1, “Methods for treating disorders induced by H. pylori infections and pharmaceutical compositions for the same” (National University Corporation Nagoya University, priority 2005, published 2006).
Values after ≈ are worked out from the molar mass of the structure shown. Read-outs that look alike come from different tables or passages of the source.

What was measured:
H. pylori strain 26695 [1] = assay: MBC of AMX with glycine by liquid culture method
Protocol: H. pylori was treated with the indicated concentrations of the test compounds for 3 days. AMX was used at concentrations of 0 to 75 ng/ml. […] The mean value for the log number of CFU per milliliter at each concentration was plotted.
By a second method, the minimal bactericidal concentrations (MBCs), defined as the lowest concentration of each antibiotic that completely killed the isolates, were determined by using liquid cultures with antimicrobial agents by a modification of the method of Sjöström et al. (31). […] After 3 days of incubation of H. pylori at 37° C. under microaerophilic conditions, aliquots from each culture were applied to BB agar for determination of the MBC. After 4 days of incubation, the number of CFU was counted.

H. pylori 26695 = assay: Time-kill curve test
Protocol: Glycine in BB was added to the cultures at the start of incubation. The mean values for the log number of CFU per milliliter versus time for H. pylori were tested with different concentrations of glycine. At 12-h intervals after drug addition, aliquots of each culture were spread onto BB agar for determination of the number of CFU.
The time course of the antibacterial effects was determined with strain 26695 (18). Briefly, bacteria cultured for 4 days on BB agar were diluted with fresh BB to ˜10^8 CFU/ml. […] At 0, 12, 24, 36, and 48 h, samples were removed and 0.1 ml of 10-fold serial dilution was plated onto BB agar. […] At 0, 6, 12, 18, and 24 h, samples were removed and 0.1 ml of 10-fold serial dilutions was plated onto BB agar. The number of colonies growing on the plates after 4 days of incubation was counted in both studies.

H. pylori strains = assay: MIC of CLR for donor strains and CLR-resistant isogenic mutants (agar/disk dilution); assay type: cell-based, Helicobacter pylori
Protocol: The susceptibilities of the CLR-resistant strains were determined by the agar dilution method (27). […] The MIC of glycine was defined as the lowest concentration that inhibited the visible growth of isolates completely by the agar dilution method on Mueller-Hinton agar (Becton Dickinson and Company, Paramus, N.J.) plates supplemented with 5% aged sheep blood (Nippon Bio-Test Laboratories Inc., Tokyo, Japan) (M-H agar) (27).
(§1) Briefly, all isolates were incubated for 4 days on BB agar. After this incubation, inocula were prepared by suspending growth from the BB agar plates with antimicrobial agents in saline to achieve a suspension equivalent to a 2.0 McFarland standard. Final inocula of 10^6 CFU/spot were applied to M-H agar or BB. All plates were incubated for 3 days at 35° C. in a microaerophilic atmosphere, and the number of CFU was counted. In the liquid culture study, aliquots from each culture were applied to BB agar after 3 days of incubation of H. pylori at 37° C. under microaerophilic conditions. After 4 days of incubation, the number of CFU was counted. The mean value for the log number of CFU per milliliter was plotted.
CLR-resistant isogenic mutants with a single point mutation in domain V of the 23S rRNA gene were created from strain 26695 by natural transformation (3, 29). Transformants were isolated, and the MICs of CLR were determined by the disk dilution method.

[2] = system: Lactococcus lactis subspecies; settings: cited from earlier work
[3] = system: 31 H. pylori strains, including CLR-resistant strains; assay: microbe, parasite or virus in culture; settings: Helicobacter pylori
[4] = system: 31 H. pylori strains, including CLR-resistant strains
H. pylori strain 26695 [5] = system: H. pylori strain 26695
Protocol: The PAE on bacteria was measured by a modification of the method of Ibrahim et al. (19). After 4 days of growth of strain 26695 on BB agar, the bacteria were harvested, placed into PBS, and diluted with BB to ˜10^8 CFU/ml; and a final inoculum of 10^6 CFU/ml was applied to BB agar. […] After incubation for 8 h, the antibiotics were removed by dilution 1:10^3 into fresh BB and the cultures were incubated for 24 h. Samples were collected for viable counts (numbers of CFU per milliliter) every 4 h, plated onto BB agar plates, and incubated for 4 days. Viability curves were then determined. The control culture, which was not exposed to any antimicrobial agents, was treated similarly.
For quantification of the PAE, viable counts were determined before and after antibiotic exposure.

[6] = system: CLR-susceptible and CLR-resistant H. pylori strains
Protocol: H. pylori strains were treated with the indicated concentrations of test compound for 3 days. The mean value for the log number of CFU per milliliter of all CLR-susceptible and all CLR-resistant H. pylori strains at each concentration was plotted. Glycine was used at concentrations of 0, 0.5, 1, 1.5, 2.0, and 2.5 mg/ml. […] Symbols: ▪, CLR-susceptible strains; ▴, CLR-resistant strains.
as §1

CC1(C)S[C@@H]2[C@H](NC(=O)[C@H](N)c3ccc(O)cc3)C(=O)N2[C@H]1C(=O)O [AMX, amoxicillin]
MBC of AMX with glycine relative to that of AMX alone (H. pylori strain 26695 [1]): 1/10
MBC (H. pylori strain 26695 [1]; Helicobacter pylori, 26695, read-out: MBC of AMX with glycine, with glycine at 0.5 mg/ml): 0.025 mg/L
MBC (H. pylori strain 26695 [1]; Helicobacter pylori, 26695, read-out: MBC of AMX with glycine, with glycine at 1 mg/ml): 0.01 mg/L
MBC (H. pylori strain 26695 [1]; Helicobacter pylori, 26695, read-out: MBC of AMX, with glycine at 0 mg/ml (AMX alone)): 0.075 mg/L
viable cells at 24 h (H. pylori 26695; AMX alone at 75 ng/ml): no viable cells

CC[C@H]1OC(=O)[C@H](C)[C@@H](O[C@H]2C[C@@](C)(OC)[C@@H](O)[C@H](C)O2)[C@H](C)[C@@H](O[C@@H]2O[C@H](C)C[C@H](N(C)C)[C@H]2O)[C@](C)(OC)C[C@@H](C)C(=O)[C@H](C)[C@@H](O)[C@]1(C)O [CLR, clarithromycin]
MIC of CLR (H. pylori strains; isogenic mutant strain 26695:535): 4 mg/L
MIC of CLR (H. pylori strains; isogenic mutant strain 26695:628): 32 mg/L
MIC of CLR (H. pylori strains; strain 535 (donor, A-to-G at position 2144)): 4 mg/L
MIC of CLR (H. pylori strains; strain 628 (donor, A-to-G at position 2143)): 32 mg/L

NCC(=O)O [glycine, Glycine]
glycine content of medium above which growth failed [2]: more than 2%
MIC50 [3]: 1500 mg/L (≈ 20 mM)
MIC90 ([3]; 31 strains): 2500 mg/L (≈ 33.3 mM)
MIC ([3]; ATCC43504, read-out: MIC of glycine): 2500 mg/L
MIC ([3]; read-out: MIC of glycine): 2500 mg/L
MIC ([3]; read-out: glycine MICs for the 31 strains): 1000 to 2500 mg/L (≈ 13.3 to 33.3 mM)
MIC of glycine [4]: the same as the MIC for strain 26695
difference in glycine MIC for CLR-susceptible and -resistant strains [4]: no difference
glycine concentration above which no colonies were detected in M-H agar ([4]; all strains tested): more than 2.5 mg/ml
PAE against H. pylori (H. pylori strain 26695 [5]): no PAE
time of significant decrease in number of CFU (P<0.01) (H. pylori 26695; glycine alone, all concentrations): 48 h
earliest time of significant decrease in number of CFU (P<0.01) (H. pylori 26695; glycine at 5 mg/ml): 24 h
earliest time of significant decrease in number of CFU (P<0.01) (H. pylori 26695; glycine at 10 mg/ml): 12 h
nature of the effect of glycine (H. pylori 26695; time-kill, 0 to 10 mg/ml): bactericidal
difference in suppression of growth between CLR-susceptible and -resistant strains ([6]; including isogenic mutant strains, FIG. 1): no difference
80% Inh. % ([6]; see FIG. 1): 0.05 mg/mL
